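Five concentrations, 48 hours, 96-well plates. TGI marks complete inhibition of growth.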
Assays:
Test in all cases: inhibition of tumour cell growth, NCI panel, 48 h
CCRF-CEM leukemia = tested on: CCRF-CEM leukemia
SN12C renal = tested on: SN12C renal
NCI-H522 lung = tested on: NCI-H522 lung
UACC-257 melanoma = tested on: UACC-257 melanoma
LOX IMVI melanoma = tested on: LOX IMVI melanoma
A549 NSCLC = tested on: A549 NSCLC
SK-MEL-28 melanoma = tested on: SK-MEL-28 melanoma
HT29 colon = tested on: HT29 colon
U251 CNS = tested on: U251 CNS
M19-MEL melanoma = tested on: M19-MEL melanoma
HL-60(TB) leukemia = tested on: HL-60(TB) leukemia
NCI-H226 lung = tested on: NCI-H226 lung
RXF-631 renal = tested on: RXF-631 renal
SK-OV-3 ovarian = tested on: SK-OV-3 ovarian
ACHN renal = tested on: ACHN renal
KM20L2 colon = tested on: KM20L2 colon
CAKI-1 renal = tested on: CAKI-1 renal
TK-10 renal = tested on: TK-10 renal
LXFL 529 NSCLC = tested on: LXFL 529 NSCLC
UACC-62 melanoma = tested on: UACC-62 melanoma
IGROV1 ovarian = tested on: IGROV1 ovarian
SF-539 CNS = tested on: SF-539 CNS
RPMI-8226 leukemia = tested on: RPMI-8226 leukemia
SW-620 colon = tested on: SW-620 colon
EKVX NSCLC = tested on: EKVX NSCLC
DMS 273 small cell lung = tested on: DMS 273 small cell lung
SNB-19 CNS = tested on: SNB-19 CNS
M14 melanoma = tested on: M14 melanoma
OVCAR-5 ovarian = tested on: OVCAR-5 ovarian
HCT-116 colon = tested on: HCT-116 colon
SR leukemia = tested on: SR leukemia
SF-268 CNS = tested on: SF-268 CNS
XF 498 CNS = tested on: XF 498 CNS
HCC-2998 colon = tested on: HCC-2998 colon
OVCAR-4 ovarian = tested on: OVCAR-4 ovarian
SF-295 CNS = tested on: SF-295 CNS
OVCAR-3 ovarian = tested on: OVCAR-3 ovarian
NCI-H460 lung = tested on: NCI-H460 lung
NCI-H23 lung = tested on: NCI-H23 lung
SK-MEL-2 melanoma = tested on: SK-MEL-2 melanoma
SNB-78 CNS = tested on: SNB-78 CNS
RXF 393 renal = tested on: RXF 393 renal
SK-MEL-5 melanoma = tested on: SK-MEL-5 melanoma
KM12 colon = tested on: KM12 colon
OVCAR-8 ovarian = tested on: OVCAR-8 ovarian
MALME-3M melanoma = tested on: MALME-3M melanoma
DLD-1 colon = tested on: DLD-1 colon
HCT-15 colon = tested on: HCT-15 colon
HOP-18 NSCLC = tested on: HOP-18 NSCLC
UO-31 renal = tested on: UO-31 renal
HOP-62 NSCLC = tested on: HOP-62 NSCLC
COLO 205 colon = tested on: COLO 205 colon
K-562 leukemia = tested on: K-562 leukemia
HOP-92 NSCLC = tested on: HOP-92 NSCLC
MOLT-4 leukemia = tested on: MOLT-4 leukemia
SNB-75 CNS = tested on: SNB-75 CNS
786-0 renal = tested on: 786-0 renal
DMS 114 small cell lung = tested on: DMS 114 small cell lung
A498 renal = tested on: A498 renal

O=C(O/N=C1/CCCC/C1=C\c1ccccc1)c1ccc(Cl)c(Cl)c1
TGI (CCRF-CEM leukemia): 53.2 µM
TGI (SN12C renal): > 100 µM
TGI (NCI-H522 lung): 33.1 µM
TGI (UACC-257 melanoma): > 100 µM
TGI (LOX IMVI melanoma): 42.8 µM
TGI (A549 NSCLC): 32.3 µM
TGI (SK-MEL-28 melanoma): 68.4 µM
TGI (HT29 colon): 48.9 µM
TGI (U251 CNS): 32.9 µM
TGI (M19-MEL melanoma): > 100 µM
TGI (HL-60(TB) leukemia): 34.1 µM
TGI (NCI-H226 lung): > 100 µM
TGI (RXF-631 renal): 31.8 µM
TGI (SK-OV-3 ovarian): > 100 µM
TGI (ACHN renal): 30.3 µM
TGI (KM20L2 colon): > 100 µM
TGI (CAKI-1 renal): 67.2 µM
TGI (TK-10 renal): 58.8 µM
TGI (LXFL 529 NSCLC): 27.9 µM
TGI (UACC-62 melanoma): 45.6 µM
TGI (IGROV1 ovarian): 52.5 µM
TGI (SF-539 CNS): 60 µM
TGI (RPMI-8226 leukemia): > 100 µM
TGI (SW-620 colon): 35.8 µM
TGI (EKVX NSCLC): > 100 µM
TGI (DMS 273 small cell lung): 53.8 µM
TGI (SNB-19 CNS): > 100 µM
TGI (M14 melanoma): > 100 µM
TGI (OVCAR-5 ovarian): > 100 µM
TGI (HCT-116 colon): 26.4 µM
TGI (SR leukemia): > 100 µM
TGI (SF-268 CNS): 24.6 µM
TGI (XF 498 CNS): > 100 µM
TGI (HCC-2998 colon): > 100 µM
TGI (OVCAR-4 ovarian): 54.4 µM
TGI (SF-295 CNS): > 100 µM
TGI (OVCAR-3 ovarian): 41 µM
TGI (NCI-H460 lung): > 100 µM
TGI (NCI-H23 lung): 36.7 µM
TGI (SK-MEL-2 melanoma): > 100 µM
TGI (SNB-78 CNS): 39.5 µM
TGI (RXF 393 renal): 60.2 µM
TGI (SK-MEL-5 melanoma): > 100 µM
TGI (KM12 colon): > 100 µM
TGI (OVCAR-8 ovarian): 32.5 µM
TGI (MALME-3M melanoma): > 100 µM
TGI (DLD-1 colon): > 100 µM
TGI (HCT-15 colon): > 100 µM
TGI (HOP-18 NSCLC): > 100 µM
TGI (UO-31 renal): 31.8 µM
TGI (HOP-62 NSCLC): > 100 µM
TGI (COLO 205 colon): 81.5 µM
TGI (K-562 leukemia): 34.5 µM
TGI (HOP-92 NSCLC): > 100 µM
TGI (MOLT-4 leukemia): 60.9 µM
TGI (SNB-75 CNS): 61.6 µM
TGI (786-0 renal): 96.2 µM

O=C(O)CC(O)(c1ccccc1C(=O)O)c1cccc2ccccc12 (stereo not given)
TGI (CCRF-CEM leukemia): > 100 µM
TGI (SN12C renal): > 100 µM
TGI (NCI-H522 lung): > 100 µM
TGI (UACC-257 melanoma): > 100 µM
TGI (LOX IMVI melanoma): > 100 µM
TGI (A549 NSCLC): > 100 µM
TGI (SK-MEL-28 melanoma): > 100 µM
TGI (HT29 colon): > 100 µM
TGI (U251 CNS): > 100 µM
TGI (M19-MEL melanoma): > 100 µM
TGI (HL-60(TB) leukemia): > 100 µM
TGI (NCI-H226 lung): > 100 µM
TGI (RXF-631 renal): > 100 µM
TGI (SK-OV-3 ovarian): > 100 µM
TGI (ACHN renal): > 100 µM
TGI (CAKI-1 renal): > 100 µM
TGI (TK-10 renal): > 100 µM
TGI (LXFL 529 NSCLC): > 100 µM
TGI (UACC-62 melanoma): > 100 µM
TGI (IGROV1 ovarian): > 100 µM
TGI (SF-539 CNS): > 100 µM
TGI (DMS 114 small cell lung): > 100 µM
TGI (RPMI-8226 leukemia): > 100 µM
TGI (SW-620 colon): > 100 µM
TGI (EKVX NSCLC): > 100 µM
TGI (DMS 273 small cell lung): > 100 µM
TGI (SNB-19 CNS): > 100 µM
TGI (M14 melanoma): > 100 µM
TGI (OVCAR-5 ovarian): > 100 µM
TGI (HCT-116 colon): > 100 µM
TGI (SR leukemia): > 100 µM
TGI (SF-268 CNS): > 100 µM
TGI (XF 498 CNS): > 100 µM
TGI (OVCAR-4 ovarian): > 100 µM
TGI (SF-295 CNS): > 100 µM
TGI (OVCAR-3 ovarian): > 100 µM
TGI (NCI-H460 lung): > 100 µM
TGI (NCI-H23 lung): > 100 µM
TGI (SK-MEL-2 melanoma): > 100 µM
TGI (SNB-78 CNS): > 100 µM
TGI (RXF 393 renal): > 100 µM
TGI (A498 renal): > 100 µM
TGI (SK-MEL-5 melanoma): > 100 µM
TGI (KM12 colon): > 100 µM
TGI (OVCAR-8 ovarian): > 100 µM
TGI (MALME-3M melanoma): > 100 µM
TGI (DLD-1 colon): > 100 µM
TGI (HCT-15 colon): > 100 µM
TGI (HOP-18 NSCLC): > 100 µM
TGI (UO-31 renal): > 100 µM
TGI (HOP-62 NSCLC): > 100 µM
TGI (COLO 205 colon): > 100 µM
TGI (K-562 leukemia): > 100 µM
TGI (HOP-92 NSCLC): > 100 µM
TGI (MOLT-4 leukemia): > 100 µM
TGI (SNB-75 CNS): > 100 µM
TGI (786-0 renal): > 100 µM

CCOc1ccccc1NC(=O)CC1Sc2ccccc2NC1=O (stereo not given)
TGI (CCRF-CEM leukemia): > 100 µM
TGI (SN12C renal): > 100 µM
TGI (NCI-H522 lung): 73.7 µM
TGI (UACC-257 melanoma): > 100 µM
TGI (LOX IMVI melanoma): > 100 µM
TGI (A549 NSCLC): > 100 µM
TGI (SK-MEL-28 melanoma): > 100 µM
TGI (HT29 colon): > 100 µM
TGI (U251 CNS): > 100 µM
TGI (M19-MEL melanoma): > 100 µM
TGI (HL-60(TB) leukemia): 67.9 µM
TGI (NCI-H226 lung): > 100 µM
TGI (RXF-631 renal): > 100 µM
TGI (SK-OV-3 ovarian): > 100 µM
TGI (ACHN renal): > 100 µM
TGI (KM20L2 colon): > 100 µM
TGI (CAKI-1 renal): > 100 µM
TGI (TK-10 renal): > 100 µM
TGI (LXFL 529 NSCLC): > 100 µM
TGI (UACC-62 melanoma): > 100 µM
TGI (IGROV1 ovarian): > 100 µM
TGI (SF-539 CNS): > 100 µM
TGI (SW-620 colon): > 100 µM
TGI (EKVX NSCLC): > 100 µM
TGI (DMS 273 small cell lung): > 100 µM
TGI (SNB-19 CNS): > 100 µM
TGI (M14 melanoma): > 100 µM
TGI (OVCAR-5 ovarian): > 100 µM
TGI (HCT-116 colon): > 100 µM
TGI (SR leukemia): 75.7 µM
TGI (SF-268 CNS): > 100 µM
TGI (XF 498 CNS): > 100 µM
TGI (HCC-2998 colon): > 100 µM
TGI (OVCAR-4 ovarian): > 100 µM
TGI (SF-295 CNS): > 100 µM
TGI (OVCAR-3 ovarian): > 100 µM
TGI (NCI-H460 lung): > 100 µM
TGI (NCI-H23 lung): > 100 µM
TGI (SK-MEL-2 melanoma): > 100 µM
TGI (SNB-78 CNS): > 100 µM
TGI (RXF 393 renal): > 100 µM
TGI (SK-MEL-5 melanoma): 86.6 µM
TGI (KM12 colon): > 100 µM
TGI (OVCAR-8 ovarian): > 100 µM
TGI (MALME-3M melanoma): > 100 µM
TGI (DLD-1 colon): > 100 µM
TGI (HCT-15 colon): > 100 µM
TGI (HOP-18 NSCLC): > 100 µM
TGI (UO-31 renal): > 100 µM
TGI (HOP-62 NSCLC): > 100 µM
TGI (COLO 205 colon): > 100 µM
TGI (K-562 leukemia): > 100 µM
TGI (HOP-92 NSCLC): 76.8 µM
TGI (MOLT-4 leukemia): > 100 µM
TGI (SNB-75 CNS): > 100 µM
TGI (786-0 renal): > 100 µM

Reference: PubChem BioAssay (NCI)
